The test system of one data set is db/db mice. The data set is described as follows: Oral glucose tolerance test. To be noted: fasted db/db mice, 2 g/kg glucose orally 30 minutes after the substance. It is filed as in vivo. As for the experimental part: Oral Glucose Tolerance Test
Fasted db/db mice 7 to 9 weeks old (Janvier, France) are weighed and blood is taken from the tip of the tail. This blood is used for the first measurement of glucose on the basis of which the animals are randomised and divided into groups. The test substance to be tested may be given either orally or i.p. as a suspension in 0.5% Natrosol. 30 minutes after the administration of the substance the animals are given orally 2 g/kg glucose in a volume of 0.1 ml/100 g body weight dissolved in NaCl solution. Subsequently, the glucose values are determined from the tail blood using a glucometer (Ultra OneTouch, Lifescan) at specific time intervals [30, 60, 120 and 180 minutes after oral administration of the glucose].

For another data set, the system named is mice. Briefly: Tolerability after oral administration (animals' behaviour). The data set is classed as in vivo. The note with it: oral administration of 10 mg/kg.

Molecules are shown by their SMILES.

For `CC(=O)c1ccc2c(c1)/C(=C(/NCCC(=O)N1CCN(C)CC1)c1ccccc1)C(=O)N2` [Example 1.009], the “activity in the oral glucose tolerance test” value with db/db mice is listed as “significant activity”. Also, the “tolerability: changes in the animals' behaviour” value with mice is listed as “no changes were observed in the animals' behaviour”.

The values are drawn from patent US7560480B2, “Alkyl-containing 5-acylindolinones, the preparation thereof and their use as medicaments” (Boehringer Ingelheim International GmbH, priority 2004, dated 2009).
